Patent US7700576B2, “Pharmaceutical composition on basis of reverse transcriptase inhibitor and meldonium” (priority 2005, dated 2010)

Legend:
myocardium = system: myocardium; design: species or system mice; settings: mouse, in vivo, ip
Experimental: The cardiotoxic action of Zidovudine and Meldonium pharmaceutical compositions was investigated by introducing them into male mice of initial mass 15.69±1.56 g during a fortnight. Throughout the experiment, the animals were kept in standard laboratory conditions at temperature of 22±0.5° C. and 12 hours light/darkness cycle, being fed with standard laboratory animal food. For the control group (n=6), 10 ml of 0.9% NaCl aqueous solution was intraperitoneally introduced daily (1st and 12th group). In a series of experiments, the following solutions were administered intraperitoneally for animal trial groups (including 6 mice each) daily. On the 15th day of the trial, the animals were decapitated, hearts were taken out and placed into 10% formalin solution. For immuno-histochemical research, organs were fixed in paraffin, and preparations of 4 μm thickness were sliced which were tinged according to the avidin-biotin immuno-histochemical method by use of DAKO LSAB reagent kit.

cerebral cortex neurons = assay: Cerebral cortex neuron degenerative transformation (molecular and external granule layers); type: in vivo, mice; settings: after a fortnight
Experimental: (§1) For this purpose in an experiment of analogous pattern, the experimental animals' neurological reactions were assessed after a fortnight. For this assessment, the common test of pain latent period in the tail compression model as well as the appraisal of cerebral cortex neuron degenerative transformation was made (molecular and external granule layers).

[1] = mouse, in vivo
Experimental: as §1

mice = settings: p.o. for mice; cited from earlier work
[2] = oral introduction; cited from earlier work

Structure (SMILES)	Histological changes of heart tissue (myocardium)	Increase in degenerated neurons of the cerebral cortex as compared with the control (cerebral cortex neurons) [fold]	Algesia (pain latent period, tail compression) [1]	toxicity (mice)	bioavailability [2]
Cc1cn([C@H]2C[C@H](N=[N+]=[N-])[C@@H](CO)O2)c(=O)[nH]c1=O [AZT, 3′-Azido-3′-deoxythymidine]	induces perivascular oedema, degeneration of myocardium adipose tissue and infiltration with leucocytes	3	provokes significant algesia		
Nc1ccn([C@@H]2CS[C@H](CO)O2)c(=O)n1 [Lamivudine, (2R-cis)-4-Amino-1-[2-(hydroxymethyl)-1,3-oxathiolan-5-yl]-2(IH)-pyrimidinone]		3	provokes significant algesia		
C[N+](C)(C)NCCC(=O)[O-] [Meldonium, 3-(2,2,2-Trimethylhydrazinium) propionate]				more than 25,000 mg/kg	very high
Cc1cn([C@H]2C=C[C@@H](CO)O2)c(=O)[nH]c1=O [Stavudine, 2′,3′-Didehydro-3′-deoxythymidine]	induces perivascular oedema, degeneration of myocardium adipose tissue and infiltration with leucocytes	3	provokes significant algesia		
